Source: the CheMixHub ionic liquid set
± gives the uncertainty stated by the source.

Assay: xn = mol fraction of the nth substance listed
[1] = 308.15 K, 101 kPa, x2 = 0, x3 = 0

O + CCCCCC[n+]1ccc(C)cc1.[Br-]
electrical conductivity (288.15 K, 100 kPa, frequency 0.003 MHz, x2 = 0): 0.0001 S/m
electrical conductivity (308.15 K, 100 kPa, frequency 0.003 MHz, x2 = 0): 0.00022 S/m

NC(N)=[NH2+].O=S(=O)([O-])C(F)(F)F + CN(CCO)CCO + O
viscosity (323.2 K, 101 kPa, x2 = 0.1179, x3 = 0.8792): 3.5 ± 1.5 mPa·s

CN(CCO)CCO + CCCCCC[n+]1ccn(C)c1.F[B-](F)(F)F
viscosity (303.15 K, 101 kPa, x1 = 1): 57.5 ± 3.5 mPa·s
viscosity (308.15 K, 101 kPa, x1 = 1): 44.2 ± 2.7 mPa·s
viscosity (313.15 K, 101 kPa, x1 = 1): 35 ± 2.1 mPa·s

O + C[C@H](N)C(=O)O + CCCCCCCCCCCCCCCC[n+]1ccccc1.[Cl-]
electrical conductivity [1]: 6.7e-05 ± 1e-06 S/m

CCCC[n+]1ccn(C)c1.F[B-](F)(F)F + NC(N)=O + O
viscosity (298.15 K, 100 kPa, x2 = 0, x3 = 0.9487): 1.99 ± 0.1 mPa·s

CCCCn1cc[n+](CCOCCOCC[n+]2ccn(CCCC)c2)c1.N#C[N-]C#N.N#C[N-]C#N + CC[n+]1ccn(C)c1.N#C[N-]C#N + O=S(=O)([N-]S(=O)(=O)C(F)(F)F)C(F)(F)F.[Li+]
electrical conductivity (298 K, 100 kPa, x1 = 0.2388, x2 = 0.6693): 0.505 ± 0.02 S/m
electrical conductivity (303 K, 100 kPa, x1 = 0.2388, x2 = 0.6693): 0.581 ± 0.023 S/m
electrical conductivity (313 K, 100 kPa, x1 = 0.2388, x2 = 0.6693): 0.847 ± 0.034 S/m
electrical conductivity (323 K, 100 kPa, x1 = 0.2388, x2 = 0.6693): 1.23 ± 0.049 S/m
electrical conductivity (333 K, 100 kPa, x1 = 0.2388, x2 = 0.6693): 1.53 ± 0.061 S/m
electrical conductivity (343 K, 100 kPa, x1 = 0.2388, x2 = 0.6693): 1.85 ± 0.074 S/m

CCCC[n+]1ccn(C)c1.O=C([O-])C(F)(F)F + CC#N
electrical conductivity (298.15 K, 101 kPa, x2 = 0.2556): 0.84 ± 0.1 S/m
viscosity (298.15 K, 101 kPa, x2 = 0.2556): 24.6 ± 2.5 mPa·s

CC1COC(=O)O1 (configuration not stated) + CCCC[n+]1ccccc1.N#C[N-]C#N
viscosity (318.15 K, 101 kPa, x2 = 0): 1.724 ± 0.062 mPa·s
viscosity (333.15 K, 101 kPa, x2 = 0): 1.366 ± 0.061 mPa·s

O + CCCCCCCCCCCCCCCC[n+]1ccccc1.O=C([O-])C(O)c1ccccc1
electrical conductivity (293.15 K, 101 kPa, x2 = 0): 0.00012 S/m
electrical conductivity (298.15 K, 101 kPa, x2 = 0): 0.00015 S/m
electrical conductivity (303.15 K, 101 kPa, x2 = 0): 0.00016 S/m
electrical conductivity (308.15 K, 101 kPa, x2 = 0): 0.00017 S/m
electrical conductivity (313.15 K, 101 kPa, x2 = 0): 0.00019 S/m

CCCn1cc[n+](C)c1.O=S(=O)([N-]S(=O)(=O)C(F)(F)F)C(F)(F)F + O
viscosity (308.15 K, 100 kPa, x2 = 0.272): 18.83 ± 0.16 mPa·s
viscosity (318.15 K, 100 kPa, x2 = 0.272): 13.95 ± 0.12 mPa·s
viscosity (323.15 K, 100 kPa, x2 = 0.272): 12.19 ± 0.11 mPa·s
viscosity (343.15 K, 100 kPa, x2 = 0.272): 7.64 ± 0.07 mPa·s
viscosity (353.15 K, 100 kPa, x2 = 0.272): 6.25 ± 0.05 mPa·s

CN(CCO)CCO + CC(=O)[O-].CC[n+]1ccn(C)c1
electrical conductivity (288.15 K, 101 kPa, x2 = 0): 0.000224 ± 2.2e-05 S/m
electrical conductivity (293.15 K, 101 kPa, x2 = 0): 0.00029 ± 2.9e-05 S/m
electrical conductivity (298.15 K, 101 kPa, x2 = 0): 0.000397 ± 4e-05 S/m
electrical conductivity (303.15 K, 101 kPa, x2 = 0): 0.000528 ± 5.3e-05 S/m
electrical conductivity (308.15 K, 101 kPa, x2 = 0): 0.000675 ± 6.8e-05 S/m
electrical conductivity (313.15 K, 101 kPa, x2 = 0): 0.000896 ± 9e-05 S/m
electrical conductivity (318.15 K, 101 kPa, x2 = 0): 0.00113 ± 0.00011 S/m
electrical conductivity (323.15 K, 101 kPa, x2 = 0): 0.00144 ± 0.00014 S/m
electrical conductivity (328.15 K, 101 kPa, x2 = 0): 0.00187 ± 0.00019 S/m
viscosity (328.15 K, 101 kPa, x2 = 0): 16.9 ± 1 mPa·s
electrical conductivity (333.15 K, 101 kPa, x2 = 0): 0.00236 ± 0.00024 S/m
electrical conductivity (338.15 K, 101 kPa, x2 = 0): 0.00295 ± 0.0003 S/m
viscosity (338.15 K, 101 kPa, x2 = 0): 11.56 ± 0.7 mPa·s
electrical conductivity (343.15 K, 101 kPa, x2 = 0): 0.00365 ± 0.00036 S/m
viscosity (343.15 K, 101 kPa, x2 = 0): 9.79 ± 0.59 mPa·s
electrical conductivity (348.15 K, 101 kPa, x2 = 0): 0.00455 ± 0.00046 S/m
electrical conductivity (353.15 K, 101 kPa, x2 = 0): 0.00556 ± 0.00056 S/m

CC1COC(=O)O1 (configuration not stated) + CCCCCCCCn1cc[n+](C)c1.F[B-](F)(F)F
viscosity (323.15 K, 99.7 kPa, x1 = 1): 1.77 ± 0.25 mPa·s

CCCC[n+]1ccn(C)c1.F[B-](F)(F)F + CC#N
electrical conductivity (298.15 K, 100 kPa, x1 = 0.1059): 1.25 ± 0.013 S/m
viscosity (298.15 K, 100 kPa, x1 = 0.1059): 0.879 ± 0.011 mPa·s
electrical conductivity (298.15 K, 100 kPa, x1 = 0.2213): 1.16 ± 0.012 S/m
viscosity (298.15 K, 100 kPa, x1 = 0.2213): 2.027 ± 0.026 mPa·s
electrical conductivity (298.15 K, 100 kPa, x1 = 0.3008): 1.08 ± 0.011 S/m
viscosity (298.15 K, 100 kPa, x1 = 0.3008): 3.372 ± 0.043 mPa·s
electrical conductivity (298.15 K, 100 kPa, x1 = 0.3894): 0.782 ± 0.008 S/m
viscosity (298.15 K, 100 kPa, x1 = 0.3894): 5.548 ± 0.071 mPa·s
electrical conductivity (298.15 K, 100 kPa, x1 = 0.4432): 0.733 ± 0.007 S/m
viscosity (298.15 K, 100 kPa, x1 = 0.4432): 7.71 ± 0.1 mPa·s
electrical conductivity (298.15 K, 100 kPa, x1 = 0.6178): 0.509 ± 0.005 S/m
viscosity (298.15 K, 100 kPa, x1 = 0.6178): 18.74 ± 0.24 mPa·s
electrical conductivity (298.15 K, 100 kPa, x1 = 0.7111): 0.374 ± 0.004 S/m
viscosity (298.15 K, 100 kPa, x1 = 0.7111): 26.09 ± 0.33 mPa·s
electrical conductivity (298.15 K, 100 kPa, x1 = 0.8146): 0.338 ± 0.003 S/m
viscosity (298.15 K, 100 kPa, x1 = 0.8146): 41.69 ± 0.53 mPa·s
electrical conductivity (298.15 K, 100 kPa, x1 = 0.9113): 0.252 ± 0.003 S/m
viscosity (298.15 K, 100 kPa, x1 = 0.9113): 68.51 ± 0.99 mPa·s
electrical conductivity (298.15 K, 100 kPa, x1 = 1): 0.243 ± 0.002 S/m
viscosity (298.15 K, 100 kPa, x1 = 1): 104.7 ± 2.6 mPa·s
electrical conductivity (298.15 K, 101 kPa, x2 = 0): 0.194 ± 0.023 S/m
viscosity (298.15 K, 101 kPa, x2 = 0): 116 ± 40 mPa·s
electrical conductivity (298.15 K, 101 kPa, x2 = 0.0956): 0.278 ± 0.033 S/m
viscosity (298.15 K, 101 kPa, x2 = 0.0956): 80 ± 15 mPa·s
electrical conductivity (298.15 K, 101 kPa, x2 = 0.2023): 0.453 ± 0.054 S/m
viscosity (298.15 K, 101 kPa, x2 = 0.2023): 50.9 ± 1.6 mPa·s
electrical conductivity (298.15 K, 101 kPa, x2 = 0.3174): 0.672 ± 0.081 S/m
viscosity (298.15 K, 101 kPa, x2 = 0.3174): 31 ± 3.1 mPa·s
electrical conductivity (298.15 K, 101 kPa, x2 = 0.4034): 0.91 ± 0.11 S/m
viscosity (298.15 K, 101 kPa, x2 = 0.4034): 20.9 ± 2.2 mPa·s
electrical conductivity (298.15 K, 101 kPa, x2 = 0.5137): 1.34 ± 0.16 S/m
viscosity (298.15 K, 101 kPa, x2 = 0.5137): 11.9 ± 1.3 mPa·s
electrical conductivity (298.15 K, 101 kPa, x2 = 0.6131): 1.83 ± 0.22 S/m
viscosity (298.15 K, 101 kPa, x2 = 0.6131): 6.78 ± 0.82 mPa·s
electrical conductivity (298.15 K, 101 kPa, x2 = 0.7085): 2.48 ± 0.3 S/m
viscosity (298.15 K, 101 kPa, x2 = 0.7085): 3.78 ± 0.5 mPa·s
electrical conductivity (298.15 K, 101 kPa, x2 = 0.8093): 3.1 ± 0.37 S/m
viscosity (298.15 K, 101 kPa, x2 = 0.8093): 1.91 ± 0.26 mPa·s
electrical conductivity (298.15 K, 101 kPa, x2 = 0.8631): 3.21 ± 0.39 S/m
viscosity (298.15 K, 101 kPa, x2 = 0.8631): 1.32 ± 0.19 mPa·s
viscosity (298.15 K, 101.33 kPa, x2 = 0.3999): 17.6 ± 1.3 mPa·s
viscosity (298.15 K, 101.33 kPa, x2 = 0.7988): 1.79 ± 0.17 mPa·s
viscosity (298.15 K, 101.33 kPa, x2 = 0.8988): 0.887 ± 0.092 mPa·s
viscosity (303.15 K, 101 kPa, x2 = 0): 84.2 ± 1.6 mPa·s
viscosity (303.15 K, 101 kPa, x2 = 0.2034): 35.6 ± 0.4 mPa·s
viscosity (313.15 K, 101 kPa, x2 = 0.4013): 11.15 ± 0.13 mPa·s
viscosity (313.15 K, 101 kPa, x2 = 0.6018): 4.33 ± 0.05 mPa·s
viscosity (323.15 K, 101 kPa, x2 = 0): 35.5 ± 0.4 mPa·s
viscosity (323.15 K, 101 kPa, x2 = 0.3011): 12.61 ± 0.14 mPa·s
viscosity (323.15 K, 101 kPa, x2 = 0.5): 5.7 ± 0.07 mPa·s
viscosity (323.15 K, 101 kPa, x2 = 0.7997): 1.221 ± 0.016 mPa·s

O + CCCCCCCCCCCCCCCC[n+]1ccccc1.O=C([O-])C(O)c1ccccc1 + NCC(=O)O
electrical conductivity (293.15 K, 101 kPa, x2 = 0, x3 = 0): 0.00012 S/m
electrical conductivity (298.15 K, 101 kPa, x2 = 0, x3 = 0): 0.00015 S/m
electrical conductivity (303.15 K, 101 kPa, x2 = 0, x3 = 0): 0.00016 S/m
electrical conductivity [1]: 0.00017 S/m
electrical conductivity (313.15 K, 101 kPa, x2 = 0, x3 = 0): 0.00019 S/m
